{"source": "patent US12616713B2", "about": "“Methods for enhancing vascular density” (priority 2016, dated 2026)", "key": {"[1]": {"system": "aortic rings from 18-month old mice", "assay": "Aortic ring assay (ex vivo angiogenesis)", "assay_type": "cell-based, mouse", "settings": "18-month old WT mice, VEGF 30 ng/mL, NMN 0.5 mM, 7 days, versus PBS", "protocol": "Aortic ring assay was performed according to the published protocol (Baker et al., 2012, Nat Protoc 7, 89-104). Briefly, thoracic aortas from mice were excised and transferred to Opti-MEM media. All extraneous fat, tissue and branching vessels were removed with forceps and a scalpel under a dissection microscope. The aortas were cut into ˜0.5 mm wide rings and serum starved overnight by incubating in Opti-MEM at 37° C./5% CO2. Next day, each aortic ring was embedded in 50 μL collagen matrix in a 96-well plate and incubated at 37° C./5% CO2 for 1 h. After embedding, the vessel sprouting was stimulated by supplementing the rings with 150 μL of Opti-MEM culture containing FBS (2.5%), with or without VEGF (30 ng/mL), or FGF (30 ng/mL) and incubating at 37° C./5% CO2 for 7 days. NMN (500 μM) was added to the media wherever mentioned and replaced every 3 days. The resulting sprouts were stained with BS1 lectin-FITC (Sigma) and imaged using fluorescence microscope. The number and total area of sprouts originating from aortic rings were quantified by ImageJ software."}, "HUVECs": {"system": "HUVECs", "assay": "Cell apoptosis assay, HUVECs exposed to H2O2", "assay_type": "cell-based, human", "protocol": "HUVECs were treated with PBS (vehicle), NaHS (100 μM), NMN (500 μM) or NMN+NaHS for 6 h, followed by exposure to H2O2 (600 μM) for another 4 h. After treatments, the number of apoptotic cells was determined using Annexin V-FITC apoptosis detection kit (eBioscience) as per manufacturer's instructions. Briefly, cells were collected by trypsinization and centrifugation at 1500 rpm for 5 minutes, followed by washing cell pellet twice with cold PBS and resuspending cell pellet in 1× Annexin-binding buffer. Then, 5 μL of Annexin-V FITC was added to 195 μL of cell suspension and incubated at room temperature for 15 min in the dark. After the incubation, cells were centrifuged, resuspended in 195 μL of 1× Annexin-binding buffer and then 5 μL of propidium iodide working solution was added. After mixing gently, the fluorescence intensity was detected with a flow cytometry (FACSCanto II Analyzer, BD Biosciences) at emission at 530 nm and 575 nm and excitation at 488 nm. […]"}, "C57BL/6J mice [2]": {"system": "C57BL/6J mice", "assay": "Optoacoustic imaging of hindlimb soluble oxygen (sO2)", "assay_type": "in vivo, mouse", "settings": "20-month old mice, photoacoustic tomography", "protocol": "Optoacoustic imaging. An MSOT inVision 256-TF small animal imaging system (iThera Medical GmbH, Munich, Germany) was used (Morscher et al., 2014, Photoacoustics 2, 103-110). Mice were anesthetized with isoflurane (1.5-2%, 500 ml O2/min), and body portion below chest area was shaved using depilatory cream. The animals were then placed horizontally in the imaging chamber and three-dimensional scanning of the lower portion was performed as per manufacture's protocol. Briefly, a tunable optical parametric oscillator (OPO) pumped by an Nd:YAG laser provided excitation pulses with a duration of 9 ns at wavelengths from 680 nm to 980 nm at a repetition rate of 10 Hz with a wavelength tuning speed of 10 ms and a peak pulse energy of 100 mJ at 730 nm. Ten arms of a fiber bundle provided even illumination of a ring-shaped light strip of approx. 8 mm width. For ultrasound detection, 256 toroidally focused ultrasound transducers with a center frequency of 5 MHz (60% bandwidth), organized in a concave array of 270° angular coverage and a radius of curvature of 4 cm, were used."}, "C57BL/6J mice [3]": {"system": "C57BL/6J mice", "assay": "Treadmill endurance testing", "assay_type": "in vivo, mouse", "protocol": "Endurance testing. Treadmill tests were carried out on a 1050-RM Exer 3/6 Open Treadmill (Columbus Instruments, OH). Mice were acclimatized to the treadmill system for 3 days prior to endurance testing by running at 10-15 m/min for 20 min. In low intensity endurance testing, the speed started at 5 m/min for 5 min (warm up), and then the speed was increased by 1 every minute until 21 m/min and kept constant. In high intensity endurance testing, the speed started at 13 m/min for 5 min (warm up) at 5° inclination, and then the speed was increased by 1 every minute until 20 m/min and kept constant for 20 min. Every 20 min, the speed was increased by 5 m/min and held constant for 20 min. Mice were considered exhausted when they sat on the shocker plate for more than 10 sec without attempting to reinitiate running."}, "C57BL/6J mice [4]": {"system": "C57BL/6J mice", "assay": "Treadmill exercise training with or without NMN, muscle capillaries", "assay_type": "in vivo, mouse", "protocol": "Mice were acclimatized to the treadmill system for 3 days prior to the start of exercise training by running at 10 m/min for 20 min. The animals that were successfully acclimatized were then subjected to running at 15-20 m/min at 5° inclination for 30 minutes once daily for one month. Freshly isolated whole quadriceps and gastrocnemius muscle samples were mounted in OCT compound (Tissue-Tek), placed in an isopentane bath and slowly cooled in liquid nitrogen. Transverse sections at 20 μm-thickness were sectioned on a cryostat (Leica). The sections were fixed in pre-cooled acetone (-20° C.) for 10 min and washed with PBS. […] Slides were washed with PBST and then incubated with anti-rat Alexa Fluor 488-conjugated (Life Technologies) and anti-rabbit Alexa Fluor 594-conjugated (Life Technologies) antibodies diluted to 1:500 in blocking buffer for 2 h at room temperature. Slides were washed again with PBST and mounted with Fluoroshield with DAPI mounting medium (Sigma). Images were acquired using a confocal fluorescence microscope (Nikon A1). Quantification of capillaries and capillary density were performed using ImageJ software. TUNEL staining was performed in muscle sections using in situ BrdU-Red DNA fragmentation (TUNEL) assay kit (Abcam) as per manufacturer's protocol."}, "[5]": {"settings": "20-month old mice, low intensity treadmill test"}}, "data": [{"compound": "NC(=O)c1ccc[n+]([C@@H]2O[C@H](COP(=O)([O-])O)[C@@H](O)[C@H]2O)c1", "note": "[NMN, nicotinamide mononucleotide]", "values": [{"measurement": "number of VEGF-mediated outgrowths or sprouts per aortic ring", "setting": "[1]", "value": "doubled"}, {"measurement": "percentage of cells undergoing early apoptosis", "setting": "HUVECs; NMN 500 μM 6 h, then H2O2 600 μM 4 h", "value": "reduced the percentage of cells undergoing early apoptosis"}, {"measurement": "reduction of apoptosis in response to H2O2", "setting": "HUVECs; NaHS 0.1 mM and/or NMN 0.5 mM 6 hrs, then H2O2 600 μM 4 hrs", "value": 13, "unit": "%"}, {"measurement": "soluble oxygen (sO2) levels in resting muscle, greater than vehicle-treated controls", "setting": "C57BL/6J mice [2]", "value": 15, "unit": "%"}, {"measurement": "distance run further than untreated mice", "setting": "C57BL/6J mice [3]; 20-month old mice, high-endurance exercise regimen", "value": 80, "unit": "%"}, {"measurement": "distance run until exhaustion", "setting": "C57BL/6J mice [3]; [5]", "value": 686, "unit": "meters"}, {"measurement": "low-intensity endurance, improvement over the untreated mice", "setting": "C57BL/6J mice [3]; [5]", "value": 56, "unit": "%"}, {"measurement": "time and distance to exhaustion (endurance)", "setting": "C57BL/6J mice [3]; 31-month old mice, low intensity treadmill test", "value": "significant trend towards increased time and distance to exhaustion"}, {"measurement": "exercise capacity, including endurance", "setting": "C57BL/6J mice [3]; mice (summary statement)", "value": "increased exercise capacity"}, {"measurement": "more capillaries in gastrocnemii than sedentary mice", "setting": "C57BL/6J mice [4]; exercised and NMN-treated mice", "value": 70, "unit": "%"}, {"measurement": "increase in vascular density and exercise capacity in conjunction with exercise versus without exercise", "setting": "C57BL/6J mice [4]; mice (summary statement)", "value": "greater"}, {"measurement": "capillary density or exercise capacity", "setting": "C57BL/6J mice [4]; young mice kept sedentary, NMN 400 mg/kg/day", "value": "did not increase"}, {"measurement": "increase in capillary density", "setting": "C57BL/6J mice [4]; young mice, one month endurance training plus NMN 400 mg/kg/day, versus sedentary", "value": 3.2, "unit": "fold"}]}]}
